Data reported in article PMC8122671, “New Succinimides with Potent Anticancer Activity: Synthesis, Activation of Stress Signaling Pathways and Characterization of Apoptosis in Leukemia and Cervical Cancer Cells” (International Journal of Molecular Sciences, 2021).
“Also recorded” adds a separate entry of the source. Read-outs that look alike come from different tables or passages of the source.

Key:
[1] = test system: MOLT-4 (Human T-Lymphoid Cell Line); test: MTT cytotoxicity assay, MOLT-4; type: cell-based; conditions: MOLT-4, 48 h incubation, average (SD) of three experiments, read-out: IC50 MOLT-4
[2] = test system: caspase 3/7 in K562 cells; test: Caspase-3/7 activity assay (Apo-ONE) in K562 cells; type: cell-based, human; conditions: K562, 18 h, test compound at 5xIC50, staurosporine 1 μM; vs 1% DMSO
Experimental: After incubation for 18 h, K562 cells were lysed and the activity of caspase 3/7 was measured using a profluorescent peptide substrate.
First, 20 × 10^3 K562 cells were seeded on each well of a 96-well plate in RPMI 1640 medium supplemented with 10% fetal calf serum and antibiotics. Cells were grown for 24 h at 37 °C and 5% CO2. Test dicarboximides were dissolved in DMSO and added to cell culture to the final concentration of 5 × IC50. […] Cells were exposed to test compounds for 18 h at 37 °C and 5% CO2. Subsequently, the activity of caspase 3 and 7 was measured by Apo-ONE® Homogeneous Caspase-3/7 Assay (Promega, Madison, WI, USA) according to the manufacturer’s instructions. Briefly, the cells were lysed and incubated for 1.5 h with a profluorescent substrate for caspase 3 and 7. Next, the fluorescence was read at an excitation wavelength of 485 nm and emission of 520 nm with a FLUOStar Omega microplate reader (BMG-Labtech, Offenburg, Germany).

[3] = test system: K562 (myelogenous leukemia cell line); test: MTT cytotoxicity assay, K562; type: cell-based, human; conditions: 48 h incubation, average (SD) of three experiments, read-out: IC50 K562

Question: For `CC(C)(C)NCC(O)CN1C(=O)C2C(C1=O)C1(c3ccccc3)CC2(c2ccccc2)C(c2ccccc2)=C1c1ccccc1` (centres unmarked) [3c, 4-[3-(tert-butylamino)-2-hydroxypropyl]-1,7,8,9-tetraphenyl-4-azatricyclo[5.2.1.0^2,6]dec-8-ene-3,5-dione], which IC50 [1] is on record?
Answer: 2.6 µM

Question: What about the “activity of caspase 3/7” value [2] of the same compound?
Answer: activated caspase 3/7 to a lesser extent; also recorded: activated caspase 3 and 7

Question: What does the source list for `CCC12C(=O)C(CC)(C(c3ccccc3)=C1c1ccccc1)C1C(=O)N(CC(O)CNC(C)(C)C)C(=O)C12` (centres unmarked) [2c, 4-[3-(tert-butylamino)-2-hydroxypropyl]-1,7-diethyl-8,9-diphenyl-4-azatricyclo [5.2.1.0^2,6]dec-8-ene-3,5,10-trione]?
Answer: IC50 [3]: 4 µM; IC50 ([3]; Homo sapiens, K562, 48 h): < 6 µM; IC50 [1]: 2.5 µM; activity of caspase 3/7 [2]: over eight-fold increase in caspase activity; also recorded: activated caspase 3 and 7

Question: With `CCN(CC)CC(O)CN1C(=O)C2C(C1=O)C1(c3ccccc3)CC2(c2ccccc2)C(c2ccccc2)=C1c1ccccc1` (centres unmarked) [3d, 4-[3-(diethylamino)-2-hydroxypropyl]-1,7,8,9-tetraphenyl-4-azatricyclo[5.2.1.0^2,6]dec-8-ene-3,5-dione] as the compound, how does the IC50 [3] read?
Answer: 3.2 µM

Question: And the IC50 ([3]; Homo sapiens, K562, 48 h)?
Answer: < 6 µM

Question: And the IC50 [1]?
Answer: 2.2 µM

Question: And the “activity of caspase 3/7” value [2]?
Answer: activated caspase 3/7 to a lesser extent; also recorded: activated caspase 3 and 7

Question: `CCN(CC)CC(O)CN1C(=O)C2C(C1=O)C1(CC)C(=O)C2(CC)C(c2ccccc2)=C1c1ccccc1` (centres unmarked) [2d, 4-[3-(diethylamino)-2-hydroxypropyl]-1,7-diethyl-8,9-diphenyl-4-azatricyclo [5.2.1.0^2,6]dec-8-ene-3,5,10-trione] was tested. Which IC50 [3] did it give?
Answer: 5.8 µM

Question: What about the IC50 ([3]; Homo sapiens, K562, 48 h) of the same compound?
Answer: < 6 µM

Question: What about the IC50 [1] of the same compound?
Answer: 14 µM

Question: And the “activity of caspase 3/7” value [2]?
Answer: over eight-fold increase in caspase activity; also recorded: activated caspase 3 and 7
